# Results: patent publication EP2719696A1, “NOVEL KINASE INHIBITORS” (Asinex Limited, priority 2011, dated 2012)
# Like-named read-outs stand apart in the source and are kept apart here.
# Columns and labels:
# cKIT = cKIT (Homo sapiens, UniProt P10721); test: Kinase inhibition assay (ELISA); assay type: biochemical; conditions: 60 µM ATP
# Description: (§1) To determine the interaction of our compounds with tyrosine kinases: PDGFR-α, cKIT, PDGFR-β, VEGFR-2 we used enzyme-linked immunosorbent assay (ELISA).
# (§2) Determination plates preparation: The plates are processed by neutravidine for 2 h at 30°C. After washing thrice with TBS/0.1% Tween-20 and blocking with 1% BSA/TBS for 1 h at room temperature (RT) 96-well microtiter plates were washed thrice with TBS/0.1% Tween-20 again.
# (§3) Reaction: After addition test compounds (in DMSO, DMSO final concentration - 5%) to reaction buffer (20 mM HEPES, pH 7.5, 15 mM MgCl2, 3 mM MnCl2, 2 mM DTT, 0.2 mM Na3VO4, 0.005% Triton X-100; PDGFR-α,: 0.05 µg/ml, 0.5 µg/ml Poly(G,T)-biotin; PDGFR-β: 0.05 µg/ml, 1 µg/ml Poly(G,T)-biotin; c-KIT: 0.03 µg/ml, 0.15 µg/ml Poly(G,T)-biotin; VEGFR-2: 0.07 µg/ml, 0.05 µg/ml Poly(G,T)-biotin) and preincubation of reaction for 10 min at RT and intensive agitation, ATP solution (PDGFR-α, - 1 µM, PDGFR-β - 0.5 µM, c-KIT - 60 µM, VEGFR-2: - 1.5 µM ATP in reaction buffer per well) was added to initiate reaction. Following incubation of mixture for 1 h at 30°C and intensive agitation the reaction was stopped by stop solution (20 mM HEPES, pH 7.5, 50 mM EDTA).
# (§4) Kinase activity determination: The reaction mixture was transferred to determination plate. After mix incubation for 1 h at RT and intensive agitation the plates were washed thrice with TBS/0.1% Tween-20. Following mouse monoclonal 0.05 µg/ml Anti-p-Tyr (PY20) HRP antibodies (Santa Cruz Biotechnology) in PBS/BSA were added for 1 h at RT and intensive agitation. After washing, antibody binding was detected by tetramethylbenzidine (TMB) color development (Sigma). Measurement of A450 nm was carried out after addition of H2SO4
# PDGFR-α = PDGFR-α (Homo sapiens, UniProt P16234); test: Kinase inhibition assay (ELISA); assay type: biochemical; conditions: 1 µM ATP
# PDGFR-α, sequence (P16234 24-1089, species assumed): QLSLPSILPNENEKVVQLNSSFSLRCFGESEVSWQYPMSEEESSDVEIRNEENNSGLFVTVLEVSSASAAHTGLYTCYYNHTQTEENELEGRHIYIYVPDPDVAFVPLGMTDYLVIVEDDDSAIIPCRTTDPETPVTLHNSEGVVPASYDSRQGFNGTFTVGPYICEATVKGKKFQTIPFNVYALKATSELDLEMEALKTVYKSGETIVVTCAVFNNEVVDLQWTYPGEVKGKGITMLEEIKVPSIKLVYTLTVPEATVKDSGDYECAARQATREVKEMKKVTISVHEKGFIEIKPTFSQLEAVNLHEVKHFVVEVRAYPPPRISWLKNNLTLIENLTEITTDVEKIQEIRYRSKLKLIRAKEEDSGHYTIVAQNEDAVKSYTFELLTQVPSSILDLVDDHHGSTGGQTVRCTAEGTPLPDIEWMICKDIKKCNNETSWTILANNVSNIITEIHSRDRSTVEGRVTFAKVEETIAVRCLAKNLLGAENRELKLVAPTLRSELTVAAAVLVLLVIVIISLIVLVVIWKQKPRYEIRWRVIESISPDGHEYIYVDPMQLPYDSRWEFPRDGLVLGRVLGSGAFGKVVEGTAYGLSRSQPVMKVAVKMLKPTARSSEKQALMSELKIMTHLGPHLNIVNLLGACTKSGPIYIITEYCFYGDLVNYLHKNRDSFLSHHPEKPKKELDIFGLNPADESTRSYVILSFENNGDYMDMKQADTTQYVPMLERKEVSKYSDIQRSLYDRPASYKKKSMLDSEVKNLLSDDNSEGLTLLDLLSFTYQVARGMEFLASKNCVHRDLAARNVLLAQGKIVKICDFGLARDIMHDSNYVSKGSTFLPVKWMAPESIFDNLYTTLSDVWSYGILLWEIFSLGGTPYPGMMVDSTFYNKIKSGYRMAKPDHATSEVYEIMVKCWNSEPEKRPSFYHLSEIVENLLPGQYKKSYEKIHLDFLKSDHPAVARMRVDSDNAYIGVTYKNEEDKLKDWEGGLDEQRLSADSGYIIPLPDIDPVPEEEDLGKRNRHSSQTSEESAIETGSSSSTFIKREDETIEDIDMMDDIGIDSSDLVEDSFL
# Description: as §1, §2, §3, §4
# VEGFR-2 = VEGFR-2 (Homo sapiens, UniProt P35968); test: Kinase inhibition assay (ELISA); assay type: biochemical; conditions: 1.5 µM ATP
# VEGFR-2, sequence (P35968 20-1356, species assumed): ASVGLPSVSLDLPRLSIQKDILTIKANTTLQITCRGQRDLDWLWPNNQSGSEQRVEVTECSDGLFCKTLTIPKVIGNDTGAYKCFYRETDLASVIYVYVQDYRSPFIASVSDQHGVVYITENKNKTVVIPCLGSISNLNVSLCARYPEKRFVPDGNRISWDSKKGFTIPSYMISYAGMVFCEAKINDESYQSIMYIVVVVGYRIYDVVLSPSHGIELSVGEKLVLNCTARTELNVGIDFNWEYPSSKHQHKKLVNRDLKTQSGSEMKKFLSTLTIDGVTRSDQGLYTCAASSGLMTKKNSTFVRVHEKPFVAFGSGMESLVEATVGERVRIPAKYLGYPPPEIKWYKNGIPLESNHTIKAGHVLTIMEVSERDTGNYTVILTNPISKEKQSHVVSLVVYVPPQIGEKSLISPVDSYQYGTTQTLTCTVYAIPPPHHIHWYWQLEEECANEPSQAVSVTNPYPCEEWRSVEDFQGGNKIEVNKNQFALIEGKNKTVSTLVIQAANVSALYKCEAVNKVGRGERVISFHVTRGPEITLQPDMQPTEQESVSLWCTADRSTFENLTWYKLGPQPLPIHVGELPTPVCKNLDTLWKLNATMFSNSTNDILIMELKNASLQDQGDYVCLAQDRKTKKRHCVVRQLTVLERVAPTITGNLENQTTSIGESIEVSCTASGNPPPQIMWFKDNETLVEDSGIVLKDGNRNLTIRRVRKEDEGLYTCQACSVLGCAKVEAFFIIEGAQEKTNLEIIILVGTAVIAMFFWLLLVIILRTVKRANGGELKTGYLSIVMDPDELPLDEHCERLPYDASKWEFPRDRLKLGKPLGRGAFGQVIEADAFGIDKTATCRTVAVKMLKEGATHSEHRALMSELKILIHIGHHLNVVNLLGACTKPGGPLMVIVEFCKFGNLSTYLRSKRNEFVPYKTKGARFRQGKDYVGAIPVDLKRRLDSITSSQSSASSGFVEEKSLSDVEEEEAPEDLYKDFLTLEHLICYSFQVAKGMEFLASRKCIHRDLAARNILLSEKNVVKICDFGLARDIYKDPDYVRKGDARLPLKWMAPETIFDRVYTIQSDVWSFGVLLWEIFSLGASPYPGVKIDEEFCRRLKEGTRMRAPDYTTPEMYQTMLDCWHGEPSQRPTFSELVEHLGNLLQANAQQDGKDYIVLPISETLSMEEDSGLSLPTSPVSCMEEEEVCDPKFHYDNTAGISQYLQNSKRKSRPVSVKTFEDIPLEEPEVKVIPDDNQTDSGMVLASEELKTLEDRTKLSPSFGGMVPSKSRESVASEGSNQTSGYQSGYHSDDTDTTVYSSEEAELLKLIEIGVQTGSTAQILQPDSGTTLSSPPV
# Description: as §1, §2, §3, §4
# A375 = test: MTT proliferation / cytotoxicity assay; assay type: cell-based, human
# Description: (§5) Cell culture. The human cancer cell lines A172, A375, A2780 and U251 were purchased from the American Type Culture Collection. All cells were routinely maintained in DMEM containing 10% fetal bovine serum (Omega Scientific), at 37°C in 5% C02.
# (§6) Proliferation assay Inhibition of cell A172, A375, A2780 and U251 cell proliferation was assessed by a MTT assay (MTT = Thiazolyl Blue Tetrazolium Bromide) . Cells were inoculated into 96-well microtiter plates containing 0.5% fetal calf serum and incubated at 37°C, 5% CO2, 95% air, and 100% relative humidity for 24 h prior to addition of testing compounds. Following compounds addition, the plates were incubated for an additional 72 h before processing to measure the cell population. Each compound was tested at eight different concentrations in triplicate, as was a control sample. Growth inhibition of 50% (IC50) is calculated by analysis of the data in Prizm3.4 software.
# (§7) Table 8 lists IC50 values for inhibition of growth of several cancer cell lines, including the glioblastoma cell lines A172 and U251, measured in a MTT cytotoxicity assay. Table 8. Data of cytotoxicity assay (MTT) for several cancer cell lines, IC50 [µM]
# A172 = test: MTT proliferation / cytotoxicity assay; assay type: cell-based, human; conditions: glioblastoma cell line
# Description: as §5, §6, §7
# A2780 = test: MTT proliferation / cytotoxicity assay; assay type: cell-based, human
# Description: as §5, §6, §7
# U251 = test: MTT proliferation / cytotoxicity assay; assay type: cell-based, human; conditions: glioblastoma cell line
# Description: as §5, §6, §7
# [1] = In vivo PK study, determination of brain-to-plasma ratio; conditions: mouse, SHK mice, PO dosing 5mg/kg, 20% water solution of HPβCD, read-out: brain-to-plasma concentration ratio
# Description: Male SHK mice (22-25 g) were dosed with 5 mg/kg of related compounds as a single injection via oral gavage (formulated in 20% water solution of HPβCD). Blood samples and whole brains were collected from three mice at each of eight collection time points of 0.05, 0.25, 0.5, 1, 2, 4, 8 and 24 h post dose. Plasma was collected from blood samples, and whole brain samples were homogenized in three volumes of water. Both tissues were analyzed for concentrations of related compounds by liquid chromatography-mass spectrometry (LC-MS/MS). Table 9. brain-to-plasma concentration ratios in SHK mice after PO dosing 5mg/kg for several selected examples
# cKIT, sequence (P10721 26-976): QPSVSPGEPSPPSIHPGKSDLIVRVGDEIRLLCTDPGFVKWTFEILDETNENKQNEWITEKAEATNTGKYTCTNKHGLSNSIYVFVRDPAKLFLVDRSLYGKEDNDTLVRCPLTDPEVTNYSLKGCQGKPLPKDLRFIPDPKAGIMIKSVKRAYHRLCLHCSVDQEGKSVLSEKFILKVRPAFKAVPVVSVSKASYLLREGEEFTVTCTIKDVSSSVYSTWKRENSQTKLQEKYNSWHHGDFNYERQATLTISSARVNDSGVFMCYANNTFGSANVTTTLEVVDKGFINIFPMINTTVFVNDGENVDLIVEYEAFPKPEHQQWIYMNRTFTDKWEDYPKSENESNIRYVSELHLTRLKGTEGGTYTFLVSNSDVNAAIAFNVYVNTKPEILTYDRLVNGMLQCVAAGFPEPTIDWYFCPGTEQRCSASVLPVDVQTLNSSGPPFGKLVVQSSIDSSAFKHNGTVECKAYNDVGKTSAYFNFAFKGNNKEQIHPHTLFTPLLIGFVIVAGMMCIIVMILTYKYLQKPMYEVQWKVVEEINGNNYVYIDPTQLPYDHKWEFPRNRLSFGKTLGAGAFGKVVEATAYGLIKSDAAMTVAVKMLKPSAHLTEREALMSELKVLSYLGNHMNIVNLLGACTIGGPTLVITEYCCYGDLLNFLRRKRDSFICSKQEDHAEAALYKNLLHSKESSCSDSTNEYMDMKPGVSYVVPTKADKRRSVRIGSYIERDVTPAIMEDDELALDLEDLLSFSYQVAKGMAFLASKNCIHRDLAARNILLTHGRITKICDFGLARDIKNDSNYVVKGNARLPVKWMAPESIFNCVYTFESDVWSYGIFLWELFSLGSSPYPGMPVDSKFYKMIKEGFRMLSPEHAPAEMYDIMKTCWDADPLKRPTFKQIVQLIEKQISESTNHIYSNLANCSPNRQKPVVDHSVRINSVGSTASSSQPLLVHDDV
Compound,IC50 (cKIT) [nM],IC50 (PDGFR-α) [nM],IC50 (VEGFR-2) [nM],"Kp ([1]; male, brain/plasma)","IC50 (A375; Homo sapiens, A-375, 72 h) [µM]","IC50 (A172; Homo sapiens, A 172, 72 h) [µM]","IC50 (A2780; Homo sapiens, A2780, 72 h) [µM]","IC50 (U251; Homo sapiens, U-251, 72 h) [µM]",Kp ([1]; brain),IC50 (A375; 72 h) [µM],IC50 (A172; 72 h) [µM],IC50 (A2780; 72 h) [µM],IC50 (U251; 72 h) [µM]
"Fc1ccc(-c2cnc(Nc3cccc(CC4CCCNCC4)n3)s2)cc1 (centres unmarked) [Example 006, (6-Azepan-4-ylmethyl-pyridin-2-yl)-[5-(4-fluoro-phenyl)-thiazol-2-yl]-amine]",> 10,> 10,> 100,–,≤ 1,> 1,≤ 1,> 1,–,–,–,–,–
"CN1CCCC(Cc2cccc(Nc3ncc(-c4ccc(F)cc4)s3)n2)CC1 (centres unmarked) [Example 008, [5-(4-Fluoro-phenyl)-thiazol-2-yl]-[6-(1-methyl-azepan-4-ylmethyl)-pyridin-2-yl]-amine]",> 10,> 10,> 1000,–,> 1,> 10,> 1,> 1,–,–,–,–,–
"c1ccc(-c2cnc(Nc3cc(CCC4CCCN4)ccn3)s2)cc1 (centres unmarked) [Example 015, (5-Phenyl-thiazol-2-yl)-[4-(2-pyrrolidin-2-yl-ethyl)-pyridin-2-yl]-amine]",> 100,< 10,> 10,–,> 1,> 1,> 1,> 10,–,–,–,–,–
"c1ccc(-c2cnc(Nc3cccc(CC4CC5CCC(C4)N5)n3)s2)cc1 (centres unmarked) [Example 022, [6-(8-Aza-bicy-clo[3.2.1]oct-3-ylmethyl)-pyridin-2-yl]-(5-phenyl-thiazol-2-yl)-amine]",> 10,> 10,> 100,–,≤ 1,> 1,≤ 1,> 1,–,–,–,–,–
"COC(=O)C1CC(Cc2ccnc(Nc3ncc(-c4ccccc4)s3)c2)CC1N (centres unmarked) [Example 023, 2-Amino-4-[2-(5-phenyl-thiazol-2-ylamino)-pyridin-4-ylmethyl]-cyclopentanecar-boxylic acid methyl ester]",< 10,< 10,> 10,–,–,> 1,> 1,–,0.78,–,–,–,–
"c1ccc(-c2cnc(Nc3cc(C4CCCNC4)ccn3)s2)cc1 (centres unmarked) [Example 028, (1,2,3,4,5,6-Hexahydro-[3,4']bipyridinyl-2'-yl)-(5-phenyl-thiazol-2-yl)-amine]",> 100,< 10,32,–,> 10,> 1,> 1,> 10,–,–,–,–,–
"OCCN1CCC(c2cc(Nc3ncc(-c4ccccc4)s3)ccn2)CC1 [Example 033, 2-[4-(5-Phenyl-thiazol-2-ylamino)-3',4',5',6'-tetrahydro-2'H-[2,4']bipyridinyl-1'-yl]-ethanol]",> 100,> 10,> 100,–,> 10,> 10,> 10,> 10,–,–,–,–,–
"OCCN1CCC(c2ccnc(Nc3ncc(-c4ccccc4F)s3)c2)CC1 [Example 036, 2-{2'-[5-(2-Fluoro-phenyl)-thiazol-2-ylamino]-3,4,5,6-tetrahydro-2H-[4,4']bipyridinyl-1-yl}-ethanol]",< 10,< 10,> 10,–,> 1,> 10,> 1,> 1,–,–,–,–,–
"OCCN1CCC(c2ccnc(Nc3ncc(-c4cccc(F)c4)s3)c2)CC1 [Example 037, 2-{2'-[5-(3-Fluoro-phenyl)-thiazol-2-ylamino]-3,4,5,6-tetrahydro-2H-[4,4']bipyridinyl-1-yl}-ethanol]",< 10,< 10,> 10,–,> 10,> 10,> 1,> 1,–,–,–,–,–
"OCCN1CCC(c2ccnc(Nc3ncc(-c4cc(F)cc(F)c4)s3)c2)CC1 [Example 039, 2-{2'-[5-(3,5-Difluoro-phenyl)-thiazol-2-ylamino]-3,4,5,6-tetrahydro-2H-[4,4']bipyridinyl-1-yl}-ethanol]",> 10,< 10,> 10,–,> 1,> 1,> 10,> 10,–,–,–,–,–
[5-(4-Fluoro-phenyl)-thiazol-2-yl]-[6-(octahydro-isoindol-4-ylmethyl)-pyridin-2-yl]-amine [Example 021],> 10,> 10,> 100,–,–,–,–,–,–,> 1,> 1,> 1,> 1

# Second part, led by results:
IC50 (cKIT) [nM],IC50 (PDGFR-α) [nM],IC50 (VEGFR-2) [nM],"Kp ([1]; male, brain/plasma)",Compound,"IC50 (A375; Homo sapiens, A-375, 72 h) [µM]","IC50 (A172; Homo sapiens, A 172, 72 h) [µM]","IC50 (A2780; Homo sapiens, A2780, 72 h) [µM]","IC50 (U251; Homo sapiens, U-251, 72 h) [µM]",Kp ([1]; brain),IC50 (A375; 72 h) [µM],IC50 (A172; 72 h) [µM],IC50 (A2780; 72 h) [µM],IC50 (U251; 72 h) [µM]
> 10,< 10,> 10,–,"CS(=O)(=O)N1CCC(Cc2ccnc(Nc3ncc(-c4ccc(F)cc4)s3)c2)CC1 [Example 005, [5-(4-Fluoro-phenyl)-thiazol-2-yl]-[4-(1-methanesulfonyl-piperidin-4-ylmethyl)-pyridin-2-yl]-amine]",> 1,> 1,> 1,> 10,–,–,–,–,–
> 10,> 10,> 100,–,"CC(=O)N1CCCC(Cc2cccc(Nc3ncc(-c4ccc(F)cc4)s3)n2)CC1 (centres unmarked) [Example 007, 1-(4-{6-[5-(4-Fluoro-phenyl)-thiazol-2-ylamino]-pyridin-2-ylmethyl}-azepan-1-yl)-ethanone]",> 1,> 1,> 1,> 1,–,–,–,–,–
> 10,< 10,> 10,–,"CC(=O)N1CCOCC(Cc2ccnc(Nc3ncc(-c4ccc(F)cc4)s3)c2)C1 (centres unmarked) [Example 012, 1-(6-{2-[5-(4-Fluoro-phenyl)-thiazol-2-ylamino]-pyridin-4-ylmethyl}-[1,4]oxazepan-4-yl)-ethanone]",> 1,> 1,> 1,> 10,–,–,–,–,–
< 10,< 10,> 10,0.28,"Fc1ccc(-c2cnc(Nc3cc(CC4CCCC5CNCC54)ccn3)s2)cc1 (centres unmarked) [Example 017, [5-(4-Fluoro-phenyl)-thiazol-2-yl]-[4-(octahydro-isoindol-4-ylmethyl)-pyridin-2-yl]-amine]",–,> 1,< 1,–,–,–,–,–,–
< 10,< 10,> 10,1.79,"OCC(O)CN1CCC(c2ccnc(Nc3ncc(-c4ccc(F)cc4)s3)c2)CC1 (centres unmarked) [Example 034, 3-{2'-[5-(4-Fluoro-phenyl)-thiazol-2-ylamino]-3,4,5,6-tetrahydro-2H-[4,4']bipyridinyl-1-yl}-propane-1,2-diol]",–,> 1,> 10,–,–,–,–,–,–
> 10,< 10,> 10,–,"OCCN1CCC(c2ccnc(Nc3ncc(-c4ccc(F)c(F)c4)s3)c2)CC1 [Example 038, 2-{2'-[5-(3,4-Difluoro-phenyl)-thiazol-2-ylamino]-3,4,5,6-tetrahydro-2H-[4,4']bipyridinyl-1-yl}-ethanol]",> 1,≤ 1,> 10,> 1,–,–,–,–,–
